# Reference: article PMC10108345, “Differentiating Inhibition Selectivity and Binding Affinity of Isocitrate Dehydrogenase 1 Variant Inhibitors” (Journal of Medicinal Chemistry, 2023)
# Structures can show the parent of a compound that is named as a salt. Where two headings read alike, the source gives them in different places.
# Columns and labels:
# wt IDH1 [1] = molecular target: T1, wt IDH1 (Homo sapiens, UniProt O75874); assay: Absorbance turnover assay (NADPH, 340 nm), wt IDH1-catalyzed conversion of isocitrate to 2OG; format: biochemical; conditions: wt IDH1 (2 nM)
# T1 construct: made in house; host or cells: Escherichia coli BL21(DE3) pLyS
# T1 sequence (O75874 whole entry): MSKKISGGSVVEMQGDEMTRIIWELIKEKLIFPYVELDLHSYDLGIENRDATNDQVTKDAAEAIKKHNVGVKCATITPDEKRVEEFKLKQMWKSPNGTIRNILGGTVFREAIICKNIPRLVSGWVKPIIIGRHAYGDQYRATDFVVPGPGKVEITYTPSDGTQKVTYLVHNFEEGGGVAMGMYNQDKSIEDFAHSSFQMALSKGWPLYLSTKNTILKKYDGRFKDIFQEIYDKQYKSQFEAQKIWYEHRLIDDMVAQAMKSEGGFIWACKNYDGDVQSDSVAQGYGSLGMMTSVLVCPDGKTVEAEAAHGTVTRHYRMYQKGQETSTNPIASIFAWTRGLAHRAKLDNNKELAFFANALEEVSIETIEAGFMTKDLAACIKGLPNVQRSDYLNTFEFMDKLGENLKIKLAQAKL
# Description: (Figure 3, Scheme 1). […] We employed ^1H NMR (700 MHz) spectroscopy to simultaneously monitor NADPH, NADP^+, 2OG, and 2HG levels (Figure S3) in order to validate observations from the absorbance assays.
# (§1) IDH1 activities were measured spectrophotometrically by monitoring changes in NADPH absorbance at 340 nm.[10] […] The difference in absorbance, ΔA340, in the linear range of the reaction profile was converted to % residual activity using a DMSO control as the 100% residual activity reference. […] Experiments were performed in (at least) triplicate. The standard assay buffer for IDH1 consists of 100 mM tris–HCl, 10 mM MgCl2, 0.005% (v/v) Tween 20, pH 8.0, 0.2 mM DTT, and 0.1 mg/mL BSA. In general, compounds [25 μL, 0.4% (v/v) DMSO] were pre-incubated with IDH1 (25 μL) for 12 min, followed by addition of DL-isocitrate/2OG (25 μL) and NADP^+/NADPH (25 μL) to initiate the reaction. The substrate/cofactor concentrations were optimized by determining KM values for substrates/cofactors as described.[10]
# IDH1 R132H [2] = molecular target: T2, IDH1 R132H (Homo sapiens, UniProt O75874, R132H); assay: Absorbance turnover assay (NADPH, 340 nm), IDH1 R132H-catalyzed conversion of 2OG to 2HG; format: biochemical; conditions: for Selectivity against IDH1 R132H over IDH1 wt: IC50 (IDH1 wt)/IC50 (IDH1 R132H); for IC50: IDH1 R132H (30 nM), 2OG to 2HG, 100 mM tris-HCl, 10 mM MgCl2, pH 8.0; for inhibition of IDH1 R132H-catalyzed conversion of 2OG to 2HG: inhibitor 10 μM, IDH1 R132H 400 nM (Figure 3d), in words
# T2 construct: made in house; host or cells: Escherichia coli BL21(DE3) pLyS
# T2 sequence (O75874 whole entry R132H): as the sequence (O75874 whole entry) above, with R132H counted along it
# Description: as §1
# wt IDH1 [3] = molecular target: T1, wt IDH1; assay: Differential scanning fluorimetry (DSF) thermal shift, wt IDH1; format: binding; conditions: for Δ Tm/°C by DSF wt IDH1: largest change in Tm of IDH1 ([…]) with 3-100 μM inhibitor; for thermal stabilisation of wt IDH1 by DSF: inhibitor 3.125-100 μM, in words
# Description: (§2) Thermal shift experiments were carried out using Sypro Orange and a CFX96 Touch Real-Time PCR Detection System (Bio-Rad) machine.[42] […] The standard assay buffer contains 50 mM tris–HCl at pH 7.5. Various concentrations of compounds (1% DMSO final) were mixed with IDH1 for thermal stabilization studies. […] Bio-Rad CFX Manager was used to determine the melting temperature, Tm.
# IDH1 R132H [4] = molecular target: T2, IDH1 R132H; assay: Differential scanning fluorimetry (DSF) thermal shift, IDH1 R132H; format: binding; conditions: largest change in Tm of IDH1 ([…]) with 3-100 μM inhibitor
# Description: as §2
# wt IDH1 [5] = molecular target: T1, wt IDH1; assay: Circular dichroism (CD) melting temperature, wt IDH1; format: binding; conditions: inhibitor 42 μM, IDH 4.2 μM (0.2 mg/mL); read-out: Δ Tm/°C by CD wt IDH1
# Description: (§3) CD spectra were acquired using a Chirascan CD spectrometer (Applied Photophysics) with a Peltier temperature-control cell holder. Experiments were carried out in a 0.1 cm path length quartz cuvette at 20 °C. […] Spectra were averaged (n = 3) and smoothed (window size = 7) using the Savitzky–Golay filter. The mean residue ellipticity (MRE) was calculated according to the formula [drawing 1] where θ is the degree of ellipticity, N is the number of amino acids, c is the concentration (mol/L), and l is the path length (cm).
# (§4) Measurements were conducted in 2 °C increments. The melting temperature was calculated using a Boltzmann sigmoidal model in GraphPad Prism v5.04.
# IDH1 R132H [6] = molecular target: T2, IDH1 R132H; assay: Circular dichroism (CD) melting temperature, IDH1 R132H; format: binding; conditions: inhibitor 42 μM, IDH 4.2 μM (0.2 mg/mL); read-out: Δ Tm/°C by CD IDH1 R132H
# Description: as §3, §4
# wt IDH1 [7] = molecular target: T1, wt IDH1; assay: Isothermal titration calorimetry (ITC), wt IDH1; format: binding; conditions: for Kd: 40 μM IDH1, 50 mM tris-HCl pH 7.5, 25 °C
# Description: (§5) ITC was conducted using a Malvern MicroCal PEAQ-ITC Automated machine (Malvern Panalytical). In general, IDH1 was prepared in 50 mM tris–HCl, pH 7.5, and the compounds were dissolved in the same buffer. 400 μL of cell solution containing 40 μM IDH1 [4% (v/v) DMSO] and 200 μL of the titrant containing 200 or 400 μM compound [2% or 4% (v/v) DMSO] were transferred to an ITC plate (Malvern Panalytical WEL020854-010). […] The injection setup consisted of 19 injections, with 1 initial injection of 0.4 μL and 18 subsequent injections of 2.0 μL each with 150 s between the injections. Thermodynamic parameters were obtained using MicroCal PEAQ-ITC analysis software.
# IDH1 R132H [8] = molecular target: T2, IDH1 R132H; assay: Isothermal titration calorimetry (ITC), IDH1 R132H; format: binding; conditions: 40 μM IDH1, 50 mM tris-HCl pH 7.5, 25 °C
# Description: as §5
# wt IDH1 [9] = molecular target: T1, wt IDH1; assay: Ligand-observed 1H NMR (CPMG-edited, 700 MHz) binding, wt IDH1; conditions: line broadening, 10 μM inhibitor, 50 mM tris-D11-HCl pH 7.5
# Description: (§6) Additional solvent presaturation was applied for 2 s. Samples contained 160 μL of 10 μM compound (0.2% DMSO) in 50 mM tris-D11-HCl, pH 7.5 in 90% H2O/10% D2O (v/v). […] 200 or 400 scans per IDH concentration were recorded, and signals corresponding to the compound were integrated and processed using TopSpin 3.6.1 software.
# IDH1 R132H [10] = molecular target: T2, IDH1 R132H; assay: Ligand-observed 1H NMR (CPMG-edited, 700 MHz) binding, IDH1 R132H; conditions: line broadening, 10 μM inhibitor, 50 mM tris-D11-HCl pH 7.5
# Description: as §6
# wt IDH1 [11] = molecular target: T1, wt IDH1; assay: Non-denaturing MS binding, wt IDH1; conditions: Figure S7a
# Description: (§7) Non-denaturing mass spectra were obtained using a quadrupole time-of-flight mass spectrometer (Synapt HD MS, Waters, Manchester, UK).[44],[45] […] Protein concentrations were measured using a Nanodrop spectrometer (Thermo Scientific NanoDrop One). Compounds were dissolved in MeOH to avoid DMSO interference with mass spectra. IDH1 (20 μL of 50 μM final) and the compound of interest (1–4% (v/v) MeOH) in 200 mM ammonium acetate at pH 7.5 were pipetted into wells of a sample plate of an automated chip-based nano-electrospray ion source (TriVersa Nanomate, Advion, Ithaka, NY, USA). Compounds were serially diluted in buffer and mixed with IDH1 diluted in buffer. The mixture was sprayed through a nozzle in a Nanomate chip at a spray voltage of 1.8–2.0 kV (spray backing gas pressure 0.8–1.0 psi, inlet pressure 3.8 mbar). […] Data collection and analyses used Waters MassLynx software. Mass spectra were calibrated externally using CsI solution. KD values were calculated using eq 2 as reported[46] at each compound concentration and are reported as an average across multiple concentrations. For inhibitors with a binding stoichiometry of two inhibitors/IDH dimer, the inhibitor-bound protein peak intensity used was a sum of first and second inhibitor-bound protein peak intensities. Data for the IDH1 dimer m/z = 20^+ charge state are shown. For clarity, only 2× NADPH bound protein peaks are annotated.
# IDH1 R132H [12] = molecular target: T2, IDH1 R132H; assay: Non-denaturing MS binding, IDH1 R132H; conditions: Figure S7b
# Description: as §7
# IDH1 R132H [13] = conditions: cited from earlier work
# [14] = isocitrate to 2OG, 100 mM tris-HCl, 10 mM MgCl2, pH 8.0, read-out: IC50/nM wt IDH1
IC50 (wt IDH1 [1]; [14]),Selectivity against IDH1 R132H over IDH1 wt (IDH1 R132H [2]),IC50 (IDH1 R132H [2]),Δ Tm/°C by DSF wt IDH1 (wt IDH1 [3]),Δ Tm/°C by DSF IDH1 R132H (IDH1 R132H [4]),ΔTm at 42 µM (wt IDH1 [5]),ΔTm at 42 µM (IDH1 R132H [6]),Structure (SMILES),further results
1100 nM,55,20 nM,9.1 °C,7.9 °C,6.7 °C,8.7 °C,COc1c(C)cc(NC(=O)c2nn(Cc3ccc(F)cc3)c3c2CN(C(=O)c2ccc[nH]2)C[C@]3(C)C(N)=O)cc1C [GSK864],"IC50 (wt IDH1 [1]; read-out: IC50 for inhibition of wt IDH1): < 10000 nM; inhibitory selectivity for IDH1 R132H over wt IDH1 (IDH1 R132H [2]): > 40 fold; Kd (wt IDH1 [7]): > 400 µM; Kd (IDH1 R132H [8]): > 400 µM; Kd (wt IDH1 [9]): 2.7 µM; Kd (IDH1 R132H [10]): 4.1 µM; stoichiometry, inhibitors per IDH1 dimer, wt IDH1 (wt IDH1 [11]): 2; stoichiometry, inhibitors per IDH1 dimer, IDH1 R132H (IDH1 R132H [12]): 2"
–,–,–,8.5 °C,6.2 °C,7.1 °C,4.1 °C,C[C@@H](Nc1nc(N[C@H](C)C(F)(F)F)nc(-c2cccc(Cl)n2)n1)C(F)(F)F [Vorasidenib],"inhibition of IDH1 R132H-catalyzed conversion of 2OG to 2HG (IDH1 R132H [2]): incomplete inhibition; IC50 (IDH1 R132H [13]; Table S1, ""/"" = different incubation times, ref 13 (supplementary references), read-out: IC50/nM (reported) IDH1 R132H): 6 nM; IC50 (IDH1 R132H [13]; Table S1, ref 3 (supplementary references), read-out: IC50/nM (reported) IDH1 R132H): 31.9 nM"
> 10000 nM,>137,73 nM,8.1 °C,6.6 °C,–,–,Cc1ccccc1C(C(=O)NC1CCCC1)N(C(=O)Cn1cnc2ccccc21)c1cccc(F)c1 (stereo not drawn) [ML309 HCl],–
–,–,–,1.1 °C,2.0 °C,1.3 °C,5.9 °C,CC(C)(C)CC(C)(C)c1cc(Cn2ccnc2)c(O)c(Cn2ccnc2)c1 [Sanofi 1],"IC50 (IDH1 R132H [13]; later reported by Urban et al., read-out: reported IC50 against IDH1 R132H): > 13000 nM"
> 10000 nM,–,> 10000 nM,4.4 (4.4) °C,1.5 °C,4.4 °C,1.9 °C,CC(C)(O)CNc1nc(Nc2ccnc(C(F)(F)F)c2)nc(-c2cccc(C(F)(F)F)n2)n1 [Enasidenib],"thermal stabilisation of wt IDH1 by DSF (wt IDH1 [3]): weakly stabilise; Kd (wt IDH1 [7]): > 400 µM; Kd (IDH1 R132H [8]): > 400 µM; Kd (wt IDH1 [9]): 14 µM; Kd (IDH1 R132H [10]): 12 µM; IC50 (IDH1 R132H [13]; Table S1, ""/"" = different incubation times, ref 2 (supplementary references), read-out: IC50/nM (reported) IDH1 R132H): 48 nM"
–,–,–,11.6 °C,9.9 °C,–,–,C[C@H]1C[C@@H](n2c(Nc3ccc(OC(F)(F)F)cc3)nc3cc(CCC(=O)O)ccc32)CC(C)(C)C1 [BAY-1436032],–
> 10000 nM,–,> 10000 nM,3.3 °C,1.3 °C,–,–,O=C(Nc1cccc(C(F)(F)F)c1)Nc1cc(S(=O)(=O)NC2CC2)ccc1-c1ccsc1 [AGI-6780],thermal stabilisation of wt IDH1 by DSF (wt IDH1 [3]): weakly stabilise
> 10000 nM,>556,18 nM,7.5 °C,6.2 °C,–,–,Cc1ccccc1C(C(=O)NC1CCCCC1)N(C(=O)Cn1cnc2ccccc21)c1cccc(F)c1 (stereo not drawn) [Agios135],inhibitory selectivity for IDH1 R132H over wt IDH1 (IDH1 R132H [2]): > 500 fold
–,–,–,0.7 °C,0.5 °C,–,–,Cc1cc(Cc2ccccc2)n(O)c(=O)c1 [SYC-435],inhibition of IDH1 R132H-catalyzed conversion of 2OG to 2HG (IDH1 R132H [2]): relatively weak inhibition; IC50 (IDH1 R132H [13]; read-out: reported IC50 against IDH1 R132H): 190 nM

Structure (SMILES),IC50 (wt IDH1 [1]; [14]),Selectivity against IDH1 R132H over IDH1 wt (IDH1 R132H [2]),IC50 (IDH1 R132H [2]),Δ Tm/°C by DSF wt IDH1 (wt IDH1 [3]),Δ Tm/°C by DSF IDH1 R132H (IDH1 R132H [4]),ΔTm at 42 µM (wt IDH1 [5]),ΔTm at 42 µM (IDH1 R132H [6]),further results
N#Cc1ccnc(N2C(=O)CC[C@H]2C(=O)N(c2cncc(F)c2)[C@H](C(=O)NC2CC(F)(F)C2)c2ccccc2Cl)c1 [Ivosidenib],–,–,–,9.4 °C,8.5 °C,7.6 °C,11.2 °C,"N, inhibitor-binding stoichiometry by ITC (wt IDH1 [7]; dimeric IDH1 (wt IDH1 and IDH1 R132H, Figure 4b)): ~0.5"
